Patent publication US20100040667A1, “METHOD OF TREATING BONE CANCER” (ED. GEISTLICH SOEHNE AG FUER CHEMISCHE INDUSTRIE, priority 2006, published 2010)

Assays:
[1] = Solubility of taurolidine in water; assay type: physicochemical; settings: room temperature
Text: The preferred active substances are methylol transfer agents such as taurolidine, taurultam, mixtures thereof or equilibriums thereof. Where taurolidine and/or taurultam is used, its concentration in the aqueous solution absorbed in the gel is preferably 0.5% to 5% by weight, e.g. about 1 to 4%. Where the gel is in the form of a granulate, 2-4% by weight taurolidine and/or taurultam is preferred, more preferably, 4% taurolidine and/or taurultam by weight. Taurolidine is only about 2-3% soluble in water at room temperature, so that at higher concentrations, some material will be present as a suspension of, for example, fine taurolidine crystals.

[2] = tested on: osteosarcoma cell lines SAOS-2 (HTB-85), U2OS (HTB-96), HOS, 143B, LM5, Hu09 WT, Hu09H3, Hu09 L13, MG-63 and MG-63 M8; test: Taurolidine tested against 10 osteosarcoma cell lines; assay type: cell-based
Method: Taurolidine was tested against 10 oestosarcoma cell lines at concentrations of 50, 100 and 200 uM taurolidine. The cell lines were SAOS-2 (HTB-85), U2OS (HTB-96), HOS, 143B, LM5, Hu09 WT, Hu09H3, Hu09 L13, MG-63 and MG-63 M8.

soluble in water [1]: 2-3%
SMILES: O=S1(=O)CCN(CN2CCS(=O)(=O)NC2)CN1 [Taurolidine, taurolidine]
apoptotic cells ([2]; 50, 100 and 200 uM taurolidine): dose-dependent increase in apoptic cells
inhibition of osteosarcoma cell lines ([2]; 50, 100 and 200 uM taurolidine, 10 cell lines): inhibited all osteosarcoma cell lines tested
mechanism of apoptosis ([2]; osteosarcoma cell lines): caspase-dependent
